One may read the inhibition as the percentage by which the read-out fell short of the control. Broadly, the LD50 is the dose at which mortality reaches 50%. Read a low LD50 as a more toxic substance.

The values below come from US4435404A, “Carbostyril derivatives” (priority 1980, dated 1984).

Data set [1] has as its system collagen-induced aggregation in rabbit platelet. Briefly: Inhibition effect on collagen-induced aggregation in rabbit platelet. Type of data set: cell-based. The conditions noted are these: Oryctolagus cuniculus, Platelet, read-out: Inhibition effect on collagen-induced aggregation; for inhibition at 10 µM: concentration of the test compound solution 10^-5 mole; for inhibition at 1 µM: concentration of the test compound solution 10^-6 mole; for inhibition at 0.1 µM: concentration of the test compound solution 10^-7 mole. The protocol:
(§1) The platelet aggregation inhibitory effect is measured by using AG-II aggregometer (manufactured by Bryston Manufacturing Co.). The blood sample used for the test is a 1/9 (by volume) mixture of sodium citrate and whole blood collected from rabbit. Said sample is subjected to 10-minute centrifugal separation at 1,000 r.p.m. to obtain a platelet rich plasma (PRP). The thus obtained PRP is separated, and the remaining blood sample is further subjected to 15-minute centrifugal separation at 3,000 r.p.m. to obtain a platelet poor plasma (PPP).
(§2) The number of platelets in the PRP is counted by the Brecher-Clonkite Method, and the PRP is diluted with the PPP to prepare a PRP sample with platelet concentration of 300,000/mm^3 for the adenosine diphosphate (ADP)-induced aggregation test. There is also prepared a PRP sample with platelet concentration of 450,000/mm^3 for the collagen-induced aggregation test.
(§3) 0.6 Milliliter of said PRP sample is added into 0.01 ml of a solution of a test compound of a predetermined concentration and the mixture is placed in a 37° C. thermostat for one minute. Then 0.07 ml of an ADP or collagen solution is added to the mixture. Transmittance of this mixture is determined and the change of transmittance is recorded by using the aggregometer at stirrer speed of 1,100 r.p.m. […] The ADP solution is adjusted to a concentration of 7.5×10^-5 M, and the collagen solution is prepared by triturating 100 mg of collagen with 5 ml of said buffer and the supernatant is used as collagen inducer. Acetylsalicylic acid is used as control for the ADP-induced aggregation test and the collagen-induced aggregation test, respectively. The platelet aggregation inhibitory effect is measured in terms of percent inhibition with respect to the aggregation rate of the controls. The aggregation rate is calculated from the following formula:
(§4) Aggregation rate=[(c-a)/(b-a)]×100
(§5) b: transmittance of PRP containing a test compound and an aggregation inducer

Data set [2] has as its system ADP-induced aggregation in rabbit platelet. The experiment in a line: Inhibition effect on ADP-induced aggregation in rabbit platelet. The conditions noted are these: Oryctolagus cuniculus, Platelet; for inhibition at 100 µM: concentration of the test compound solution 10^-4 mole; for inhibition at 10 µM: concentration of the test compound solution 10^-5 mole; for inhibition at 10 µM / inhibition at 1 µM / inhibition at 0.1 µM: read-out: Inhibition effect on ADP-induced aggregation; for inhibition at 1 µM: concentration of the test compound solution 10^-6 mole; for inhibition at 0.1 µM: concentration of the test compound solution 10^-7 mole. Type of data set: cell-based. On the procedure:
as §1, §2, §3, §4, §5

A short description of data set [3]: Acute Toxicity Test. The conditions noted are these: mouse, in vivo; male mice, oral administration. The protocol:
The test compounds were administered orally to the mice and LD50 (mg/kg) of the compounds was determined.

Consider `CCC(O)CN(C(=O)CCCCOc1ccc2[nH]c(=O)ccc2c1)C1CCCCCCC1` (stereo not shown) [No. 9, 6-{4-[N-(2-Hydroxybutyl)-N-cyclooctylaminocarbonyl]butoxy}carbostyril], for which, in data set [1], the inhibition at 10 µM turned out to be 100%, the inhibition at 1 µM came to 100% and the inhibition at 0.1 µM stood at 43.2%. In data set [2], the inhibition at 100 µM came to 100%, the inhibition at 10 µM worked out at 84.9%, the inhibition at 1 µM was determined as 40.1% and the inhibition at 0.1 µM turned out to be 5.6%. Besides, the LD50 in data set [3] was more than 1000 mg/kg.
Take `O=C1CCc2cc(OCCCCC(=O)N(CCO)c3ccccc3)ccc2N1` [No. 11, 6-{4-[N-(2-Hydroxyethyl)-N-phenylaminocarbonyl]butoxy}-3,4-dihydrocarbostyril]: in data set [1], the inhibition at 10 µM was 100% and the inhibition at 1 µM turned out to be 33.9%. Also, in data set [2], the inhibition at 100 µM is 100%, the inhibition at 10 µM worked out at 49.5% and the inhibition at 1 µM stood at 22.4%. Besides, the 50% lethal dose (LD50) in data set [3] was more than 1000 mg/kg.
With `O=C1CCc2cc(OCCCCC(=O)N(CCO)CC3CCCCO3)ccc2N1` (stereo not shown) [No. 13, 6-{4-[N-(2-Hydroxyethyl)-N-(2-tetrahydropyranylmethyl)aminocarbonyl]butoxy}-3,4-dihydrocarbostyril], in data set [1], the inhibition at 10 µM is 81.7% and the inhibition at 1 µM was found to be 5.2%. Further, in data set [2], at 100 µM the inhibition was 100%, the inhibition at 10 µM came out at 30.1% and the inhibition at 1 µM stood at 5.3%. Further, the LD50 in data set [3] was more than 1000 mg/kg.
Take `O=C(CCCOc1ccc2[nH]c(=O)ccc2c1)N1CCC(c2ccccc2)CC1` [No. 16, 6-[3-(4-Phenyl-1-piperidylcarbonyl)propoxy]carbostyril]: in data set [1], the inhibition at 10 µM amounted to 40.8% and the inhibition at 1 µM is 7.7%. In data set [2], the inhibition at 100 µM was determined as 100%, the inhibition at 10 µM worked out at 27.9% and the inhibition at 1 µM is 4.9%. In data set [3], this compound had an LD50 of more than 1000 mg/kg.
`O=C1CCc2cc(OCCCC(=O)N3CCN(c4ccccc4)CC3)ccc2N1` [No. 17, 6-[3-(4-Phenyl-1-piperazinylcarbonyl)propoxy]-3,4-dihydrocarbostyril]: in data set [1], the inhibition at 10 µM worked out at 37.8% and the inhibition at 1 µM worked out at 3.4%. Further, in data set [2], at 100 µM the inhibition was 100%, the inhibition at 10 µM stood at 25.1% and the inhibition at 1 µM came out at 4.3%. In addition, the LD50 in data set [3] is more than 1000 mg/kg.
Turning to `O=C1CCc2cc(OCCCC(=O)N3CCN(C4CCCCC4)CC3)ccc2N1` [No. 18, 6-[3-(4-Cyclohexyl-1-piperazinylcarbonyl)propoxy]-3,4-dihydrocarbostyril], in data set [1], the inhibition at 10 µM was determined as 45.6% and the inhibition at 1 µM came to 15.2%. Further, in data set [2], 100 µM produced 100% inhibition, the inhibition at 10 µM was 42.1% and the inhibition at 1 µM is 7%. Besides, in data set [3], the LD50 was more than 1000 mg/kg.
Regarding `O=C(CCCOc1ccc2[nH]c(=O)ccc2c1)N(CCO)C1CCCC(O)C1` (stereo not shown) [No. 19, 6-{3-[N-(2-Hydroxyethyl)-N-(3-hydroxycyclohexyl)aminocarbonyl]propoxy}carbostyril], in data set [1], the inhibition at 10 µM turned out to be 95.3% and the inhibition at 1 µM is 47.5%. For the same compound, in data set [2], testing at 100 µM gave an inhibition of 100%, the inhibition at 10 µM stood at 63.2% and the inhibition at 1 µM came to 12%. This compound also came in with an LD50 in data set [3] of more than 1000 mg/kg.
Consider `COc1ccc(CCN(CCO)C(=O)CCCCOc2ccc3[nH]c(=O)ccc3c2)cc1OC` [No. 20, 6-{4-[N-(2-Hydroxyethyl)-N-(β-3,4-dimethoxyphenethyl)aminocarbonyl]butoxy}carbostyril], for which, in data set [1], the inhibition at 10 µM was 82.6% and the inhibition at 1 µM was found to be 29.2%. Further, in data set [2], the inhibition at 100 µM was determined as 100%, the inhibition at 10 µM came to 73.2% and the inhibition at 1 µM is 28.8%. The compound further registered an LD50 in data set [3] of more than 1000 mg/kg.
`CC(=O)OCCCN(CC1CCCCO1)C(=O)CCCCOc1ccc2c(c1)CCC(=O)N2` (stereo not shown) [No. 21, 6-{4-[N-(3-Acetyloxypropyl)-N-(2-tetrahydropyranylmethyl)aminocarbonyl]butoxy}-3,4-dihydrocarbostyril]: in data set [1], the inhibition at 10 µM was found to be 82.9% and the inhibition at 1 µM was determined as 34.2%. Also, in data set [2], the inhibition at 100 µM came to 100%, the inhibition at 10 µM stood at 60.6% and the inhibition at 1 µM amounted to 18.6%. Besides, the LD50 in data set [3] is more than 1000 mg/kg.
Regarding `O=C1CCc2cc(OCCCCC(=O)N(CCO)Cc3ccccc3)ccc2N1` [No. 22, 6-{4-[N-(2-Hydroxyethyl)-N-benzylaminocarbonyl]butoxy}-3,4-dihydrocarbostyril], in data set [1], the inhibition at 10 µM was determined as 49.2% and the inhibition at 1 µM was found to be 16.1%. For the same compound, in data set [2], the inhibition at 100 µM was 100%, the inhibition at 10 µM stood at 63.2% and the inhibition at 1 µM stood at 28.8%. The LD50 in data set [3] is more than 1000 mg/kg.
With `COCCN(C(=O)CCCCOc1ccc2[nH]c(=O)ccc2c1)C1CCCCC1` [No. 23, 6-{4-[N-(2-Methoxyethyl)-N-cyclohexylaminocarbonyl]butoxy}carbostyril], in data set [1], the inhibition at 10 µM came to 100%, the inhibition at 1 µM turned out to be 90.5% and the inhibition at 0.1 µM was determined as 67%. In addition, in data set [2], the inhibition at 100 µM was 100%, the inhibition at 10 µM turned out to be 100%, the inhibition at 1 µM worked out at 91.9% and the inhibition at 0.1 µM stood at 40.4%. The LD50 in data set [3] is more than 1000 mg/kg.
